Assay [1] concerns the target recombinant RSK2 kinase (Homo sapiens (Human), UniProt P51812). In words: LANCE Eu TR-FRET recombinant RSK2 kinase inhibition assay. Type of assay: biochemical. As to conditions: for IC50: recombinant RSK2, 3 μM ATP, mean ± S.D. (n=3). Here is the method:
All reagents were prepared in kinase buffer containing 2 mM DTT, 50 mM HEPES, 1 mM EGTA, 10 mM MgCl2, 0.01% Tween 20, pH 7.5. […] RSK2 was used at a final concentration of […]. […] Assays were performed at 25° C. in a reaction mixture consisting of 2 μL serially diluted inhibitor solution, 4 μL kinase, 2 μL substrate, and 2 μL ATP. Reagents were incubated at room temperature for 1 h before the reaction was stopped through the addition of 5 μL of EDTA at a final concentration of 10 mM.
The exemplary compounds were evaluated for their effect on RSK2 activity in the recombinant TR-FRET kinase inhibition assay and their half-maximal inhibitory potency values (IC50) were calculated using nonlinear regression analysis of the log dose-response.
(TR-FRET usually uses a lanthanide donor and a delayed reading to cut background.)

In assay [2] the test system is MOLM-13 cells. In words: MTS cellular viability assay in MOLM-13 cells. It counts as cell-based. As to conditions: Homo sapiens, 72 hr, 60 μM to 250 nM, n=3, ±S.D. Here is the method:
Cell Culture: MOLM-13 (DSMZ) cells were cultured in RPMI1640 (Gibco) supplemented with 10% FBS (Sigma Aldrich) and 1% penicillin/streptomycin solution (Cellgro) at 37° C. in an incubator humidifier with 95% air and 5% CO2. HEK293 cells (ATCC) were cultured in Dulbecco's Modified Eagle Medium (DMEM; Gibco) supplemented with 10% FBS (Sigma Aldrich) and 1% penicillin/streptomycin solution (Cellgro) at 37° C. in an incubator humidifier with 95% air and 5% CO2. HEK293 cells were allowed to adhere for 24 h prior to use in assays.
MTS Cellular Viability Assay: MOLM-13 cells were seeded into sterile 96-well plates (Corning) at 60,000 cells per well in 100 μL of media. Inhibitor solutions were administered in 50 μL over a concentration range from 60 μM to 247 nM and cells were incubated at 37° C. for 24 to 72 h. Following 3 h incubation with 30 μL CellTiter 96® Aqueous One Cell Proliferation Reagent (Promega), cell viability was measured by formazan concentration assessment through colorimetric analysis using a BioTek Synergy H1 Hybrid plate reader (Absorption=490).
Exemplary compounds were assessed in cell systems for effects on cell viability, as well as their ability to inhibit cellular RSK2 activity.
In general terms: Formazan colour is commonly taken as a measure of viable cells.

SMILES strings stand for the structures.

Sequence of recombinant RSK2 kinase (P51812 whole entry): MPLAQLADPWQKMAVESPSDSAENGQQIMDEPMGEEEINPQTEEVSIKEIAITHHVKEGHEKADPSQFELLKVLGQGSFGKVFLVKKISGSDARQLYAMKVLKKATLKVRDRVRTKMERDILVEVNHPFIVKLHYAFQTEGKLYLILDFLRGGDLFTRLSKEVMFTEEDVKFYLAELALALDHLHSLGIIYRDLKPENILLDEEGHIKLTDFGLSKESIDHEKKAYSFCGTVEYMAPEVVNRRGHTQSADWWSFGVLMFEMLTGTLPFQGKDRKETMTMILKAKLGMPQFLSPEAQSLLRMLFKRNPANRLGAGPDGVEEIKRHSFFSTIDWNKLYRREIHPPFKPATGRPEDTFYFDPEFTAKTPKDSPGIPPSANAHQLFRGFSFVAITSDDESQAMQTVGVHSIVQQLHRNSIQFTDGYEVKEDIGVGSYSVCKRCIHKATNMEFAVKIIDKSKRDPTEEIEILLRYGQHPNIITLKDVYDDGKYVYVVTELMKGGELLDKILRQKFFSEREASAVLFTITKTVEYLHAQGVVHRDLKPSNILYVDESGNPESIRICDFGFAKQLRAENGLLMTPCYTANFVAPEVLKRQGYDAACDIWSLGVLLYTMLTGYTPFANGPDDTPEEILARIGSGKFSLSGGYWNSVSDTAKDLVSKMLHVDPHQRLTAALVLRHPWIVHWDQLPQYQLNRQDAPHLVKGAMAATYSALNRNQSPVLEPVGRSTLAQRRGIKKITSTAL

One may read the IC50 as the concentration that inhibits the measured activity by half. Usually EC50 stands for the concentration giving half of the maximal effect. As to `CC(C)CCn1cnc2cnc(Nc3cc(F)c(O)c(F)c3)nc21` [A1-2, 2,6-Difluoro-4-((9-isopentyl-9H-purin-2-yl)amino)phenol], the IC50 in assay [1] came to 55.5 ± 5.6 nM. In addition, the EC50 in assay [2] is 970 ± 100 nM.

As to `Oc1c(F)cc(Nc2ncc3ncn(-c4ccc(N5CCOCC5)cc4)c3n2)cc1F` [A1-3, 2,6-Difluoro-4-((9-(4-morpholinophenyl)-9H-purin-2-yl)amino)phenol], the IC50 in assay [1] amounted to 24.6 ± 3 nM.

`Oc1c(F)cc(Nc2ncc3ncn(-c4ccc(CCN5CCOCC5)cc4)c3n2)cc1F` [A1-4, 2,6-Difluoro-4-((9-(4-(2-morpholinoethyl)phenyl)-9H-purin-2-yl)amino)phenol]: the IC50 in assay [1] came to 18.4 ± 4 nM. For the same compound, the EC50 in assay [2] is 1900 ± 70 nM.

Consider `Oc1c(F)cc(Nc2ncc3ncn(-c4cccc(Oc5ccccc5)c4)c3n2)cc1F` [A1-6, 2,6-Difluoro-4-((9-(3-phenoxyphenyl)-9H-purin-2-yl)amino)phenol], for which, in assay [1], the IC50 was 329 ± 37 nM.

As for `Oc1c(F)cc(Nc2ncc3ncn(-c4ccc(Oc5ccccc5)cc4)c3n2)cc1F` [A1-7, 2,6-Difluoro-4-((9-(4-phenoxyphenyl)-9H-purin-2-yl)amino)phenol], the IC50 in assay [1] came to 148 ± 27 nM.

Turning to `Oc1cccc(-n2cnc3cnc(Nc4cc(F)c(O)c(F)c4)nc32)c1` [A1-10, 2,6-Difluoro-4-((9-(3-hydroxyphenyl)-9H-purin-2-yl)amino)phenol], the IC50 in assay [1] worked out at 79.8 ± 4.6 nM.

On to `Oc1ccc(-n2cnc3cnc(Nc4cc(F)c(O)c(F)c4)nc32)cc1` [A1-11, 2,6-Difluoro-4-((9-(4-hydroxyphenyl)-9H-purin-2-yl)amino)phenol], for which the half-maximal inhibitory concentration (IC50) in assay [1] was determined as 81.8 ± 0.7 nM.

Take `COC(=O)CCc1ccc(-n2cnc3cnc(Nc4cc(F)c(O)c(F)c4)nc32)cc1` [A1-12, Methyl 3-(4-(2-((3,5-difluoro-4-hydroxyphenyl)amino)-9H-purin-9-yl)phenyl)-propanoate]: the IC50 in assay [1] came out at 15.7 ± 4 nM.

With `COC(=O)CCCc1ccc(-n2cnc3cnc(Nc4cc(F)c(O)c(F)c4)nc32)cc1` [A1-13, Methyl 4-(4-(2-((3,5-difluoro-4-hydroxyphenyl)amino)-9H-purin-9-yl)phenyl)butanoate], in assay [1], the IC50 worked out at 17.8 ± 1 nM. In addition, in assay [1] (statement in pharmacophore modeling text), the “activity rank in the recombinant kinase assay” value was “most active molecule”. Moreover, the half-maximal effective concentration (EC50) in assay [2] is 13900 ± 700 nM.

Take `CC(C)CCn1ccc2cnc(Nc3cc(F)c(O)c(F)c3)nc21` [A1-15, 2,6-Difluoro-4-((7-isopentyl-7H-pyrrolo[2,3-d]pyrimidin-2-yl)amino)phenol]: the IC50 in assay [1] is 95.8 ± 11 nM. For the same compound, the concentration giving a half-maximal response (EC50) in assay [2] amounted to 1300 ± 60 nM.

Take `Oc1c(F)cc(Nc2ncc3ccn(-c4ccc(N5CCOCC5)cc4)c3n2)cc1F` [A1-16, 2,6-Difluoro-4-((7-(4-morpholinophenyl)-7H-pyrrolo[2,3-d]pyrimidin-2-yl)amino)phenol]: the IC50 in assay [1] amounted to 25.7 ± 2.4 nM. In addition, the concentration for a half-maximal effect (EC50) in assay [2] turned out to be 230 ± 3 nM.

Consider `CN1CCN(c2ccc(-n3ccc4cnc(Nc5cc(F)c(O)c(F)c5)nc43)cc2)CC1` [A1-17, 2,6-Difluoro-4-((7-(4-(4-methylpiperazin-1-yl)phenyl)-7H-pyrrolo[2,3-d]pyrimidin-2-yl)amino)phenol], for which the IC50 in assay [1] was 34.7 ± 1.3 nM. Besides, in assay [2], the 50% effective concentration (EC50) amounted to 70 ± 3 nM.

For the origin of these results see patent publication US11851436B2, “Fused bicyclic pyrimidine derivatives and uses thereof” (The Regents of the University of Colorado, A Body Corporate, priority 2021, dated 2023).
